Experimental data from US5607836A, “Methods of detecting compounds which bind to the P2U receptor” (The Curators of the University of Missouri, priority 1995, dated 1997).

Columns and labels:
[1] = biological target: T1, P2U receptor of CF/T43 cells (Homo sapiens, UniProt P41231); assay: intracellular calcium by fura-2 fluorescence in CF/T43 cells (endogenous receptor); format: cell-based; conditions: for [Ca^2+ ]i response to extracellular nucleotide: 10^-4 M (printed for UTP)
T1 construct: fura-2 calcium
T1 sequence (P41231 whole entry): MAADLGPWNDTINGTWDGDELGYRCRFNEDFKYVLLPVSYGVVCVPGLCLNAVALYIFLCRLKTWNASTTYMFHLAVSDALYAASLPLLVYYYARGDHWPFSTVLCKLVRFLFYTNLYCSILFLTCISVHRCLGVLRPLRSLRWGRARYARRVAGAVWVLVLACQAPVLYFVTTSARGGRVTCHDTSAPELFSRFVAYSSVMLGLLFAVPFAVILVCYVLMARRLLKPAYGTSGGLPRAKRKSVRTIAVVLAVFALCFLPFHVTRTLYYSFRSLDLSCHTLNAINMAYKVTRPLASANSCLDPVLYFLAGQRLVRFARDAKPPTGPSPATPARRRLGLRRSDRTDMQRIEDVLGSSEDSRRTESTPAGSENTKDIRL
Experimental: (§1) Heteroloqous Expression. A retroviral vector-containing plasmid, pLHP2USN, was constructed by insertion of the cloned CF/T43 cDNA into the EcoRI and XhoI sites of pLXSN (A. Miller and G. Rosman, Biotechniques 7, 980 (1989)). An amphotrophic packaging cell line, PA317, was used to produce the LHP2USN retroviral vector and a control vector containing Neor only (LSN). Clonal human astrocytoma cells 1321N1, UNC strain, generously provided by T. K. Harden (UNC, Chapel Hill, N.C.), were plated at 150,000 cells per 60-mm dish and infected with LHP2USN or LSN (2 hr, 4 ug/ml Polybrene) and after 48 hr selected with 600 ug/ml G418 (Life Technologies, Inc., Gaithersburg, Md., U.S.A.). To assay for receptor activity, intracellular calcium concentration was measured in confluent cells on coverslips by fura-2 fluorescence using microspectrofluorimetry as previously described (S. Mason et al., Br. J. Pharmacol. 103, 1649 (1991)). Measurement of cell inositol phosphate formation was as described by H. Brown et al., Mol. Pharmacol. 40, 648 (1991), in accordance with known techniques.
(§2) A retrovirus expression system was employed to study the cloned CF/T43 HP2U cDNA in 1321N1 human astrocytoma cells. The effect of extracellular nuceotides on intracellular calcium, as measured by fura-2 fluorescence, was assessed in CF/T43 cells, uninfected 1321N1 cells, and 1321N1 cells infected with retroviral vector containing either the cloned HP2U or no insert (LSN).

human P2U receptor [2] = biological target: T2, human P2U receptor (Homo sapiens, UniProt P41231); assay: intracellular calcium by fura-2 fluorescence in 1321N1 human astrocytoma cells expressing the cloned HP2U (LHP2USN); format: cell-based; conditions: for [Ca^2+ ]i in absence of extracellular Ca^2+: HP2U-1321N1 cells
T2 sequence (P41231 whole entry): as above
Experimental: as §1, §2
To examine the pharmacological specifity of the HP2U clone expressed in 1321N1 cells, concentration-effect curves were generated for nucleotides and structural analogues active at P2X, P2Y and P2U receptors (data not shown). […] These concentration-effect relations are very similar to those reported for heterologously expressed murine P2U (Lustig, et al., supra) and virtually indistinguishable from data (not shown) generated for the endogenous CF/T43 and HT-29 receptors. Clearly, the agonist specifities fit the definition of the P2U receptor.

human P2U receptor [3] = biological target: T2, human P2U receptor; assay: inositol phosphate formation in 1321N1 cells expressing LHP2USN; format: cell-based; conditions: 1321N1 cells expressing LHP2USN pretreated with apyrase
Experimental: as §1
To test this possibility more directly, we measured inositol phosphate formation. […] We hypothesized that during the lengthy labeling period 1321N1 cells released 5'-nucleotides into the medium in quantities sufficient to "self-activate" the receptor. […] Thus, it appears the cells are persistently stimulated by nucleotides in an autocrine fashion. The mode of release of nucleotides from the astrocytoma cells and the biological consequences of the persistent autocrine activation are unknown. To facilitate comparison with controls, the inositol phosphate studies were performed on cells pretreated with apyrase.

[4] = tested on: P2T receptor of K562 cells; assay: cytoplasmic free calcium (fura-2) in untransfected or vector-transfected K562 cells; format: cell-based, human; conditions: untransfected or vector-transfected K562 cells
From the text: Stable and Transient Transfections. To generate stable transfectants expressing the P2U receptor, K562 cells were transfected by electroporation (F. Toneguzzo et al., Mol. Cell. Biol. 6, 703 (1986)) with the neomycin-resistance plasmid pP2R1. pP2R1 is pRc/CMV containing a ~2.4 kb HindIII-NotI fragment of the P2U receptor cDNA, missing the first 6 nucleotides of the 5' untranslated region of the full length cDNA. control cells were stably transfected with pRc/CMV. Cells were sedimented at 200×g for 5 min at room temperature, rinsed once with phosphate-buffered saline (10 mM NaH2 PO4, pH 7.4, 120 mM NaCl, 5 mM KCl), and resuspended in phosphate-buffered saline at a final concentration of 4×10^7 cells/ml. The cells were chilled on ice for 10 min and then transferred in 0.5 ml aliquots to prechilled electroporation cuvettes. DNA (40 μg of pP2R1 linearized with PvuI) was added to the cell suspension, the cells were subjected to a single electrical pulse (1 kV, 25 μF) and the cuvettes were placed on ice. After 10 min, growth medium was added and the cells were incubated at 37° C. Fresh growth medium supplemented with 0.7 mg/ml G418 was added 48 h […], and the cells were incubated for 2 weeks to select for stable transfectants expressing neomycin resistance. Clonal cell lines were then isolated by transferring single cells to individual wells of a 96-well culture plate: each well contained 0.2 ml of conditioned growth medium filtered from K562 stock cultures, 0.2 ml of fresh growth medium, and 0.4 mg/ml G418. The clonal cell lines were cultured for three to four weeks in growth medium containing 0.4 mg/ml G418 and assayed for P2U receptor, the results shown are from one representative clonal cell line.
Cytoplasmic Free Calcium Measurements. Cells were sedimented at 200×g for 5 min at room temperature and washed once with 10 ml of Hepes-bufferedsaline (20 mM Hepes, pH 7.4, 120 mM NaCl, 5 mM KCl, 1 mM MgCl2, and 1 mM CaCl2). Washed cells were suspended in Hepes-buffered saline at 5×10^5 cells/ml, and stored (for up to 4 h) at 37° C. The concentration of cytoplasmic free calcium, [Ca^2+ ]i, was measured by dual-excitation spectrofluorometric analysis of cells loaded with fura-2, a fluorescent probe for calcium.

[5] = biological target: histidine-tagged P2U receptor (P2HIS) (Mus musculus, UniProt P35383); assay: PIP2 in K562 cells stably expressing P2HIS; format: cell-based, murine
Sequence of histidine-tagged P2U receptor (P2HIS) (P35383 whole entry): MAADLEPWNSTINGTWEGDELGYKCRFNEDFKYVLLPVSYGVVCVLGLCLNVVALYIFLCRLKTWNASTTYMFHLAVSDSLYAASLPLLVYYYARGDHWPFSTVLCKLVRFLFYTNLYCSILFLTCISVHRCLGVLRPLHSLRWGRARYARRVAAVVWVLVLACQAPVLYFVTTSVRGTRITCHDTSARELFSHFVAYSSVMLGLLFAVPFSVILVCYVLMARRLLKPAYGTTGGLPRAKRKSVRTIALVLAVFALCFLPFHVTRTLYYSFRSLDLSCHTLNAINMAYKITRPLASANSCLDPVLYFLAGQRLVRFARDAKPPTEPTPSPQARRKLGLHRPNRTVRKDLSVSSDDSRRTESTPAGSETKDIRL
Experimental: Construction and Purification of the Histidine-tagged P2U Receptor (P2HIS). To produce P2HIS, 70 pmoles of the primers CGCACCATTGCCTTGGTAC (SEQ ID NO:3)(which contains a BstXI site) and […] (SEQ ID NO:4) (which contains an EcoRV site, stop codon, and the hexahistidine coding sequence) were incubated with 50 ng of pP2R, 20 nmoles of each dNTP, 1X reaction buffer (20 mM Tris-HCl, pH 8.2, 10 mM KCl, 6 mM (NH4)2 SO4, 1.5 mM MgCl2, and 0.1% Triton X-100), and H2 O to bring the reaction mixture to a 100 μl volume. […] The reaction mixture was overlayed with 50 μl of mineral oil and subjected to 30 PCR cycles (95° C. for 1.5 min, 55° C. for 1.5 min, and 72° C. for 2 min). The PCR product, a single 400 bp band, was subcloned into the unique BstXI-EcoRV restriction site of pP2R to generate pP2HIS. K562 cells with stable P2HIS expression were produced by subcloning the HindIII-NotI restriction fragment of pP2HIS encoding the histidine-taged P2U receptor cDNA into pRC/CMV and transfecting K562 cells as described for pP2R1. The composition of pP2HIS was verified by DNA sequence analysis.

Row | SMILES | [Ca^2+ ]i response to extracellular nucleotide [1] | [Ca^2+ ]i response to extracellular nucleotide in Ca2+-free medium [1] | EC50 (human P2U receptor [2]) [nM] | efficacy / effect in concentration-effect curves (human P2U receptor [2]; HP2U clone expressed in 1321N1 cells) | [Ca^2+ ]i in absence of extracellular Ca^2+ (human P2U receptor [2]) | inositol phosphate accumulation (human P2U receptor [3]) | elevation of [Ca^2+ ]i in untransfected or vector-transfected K562 cells [4] | PIP2 in K562 cells stably expressing P2HIS [5] | [Ca^2+ ]i response of 1321N1 cells expressing the LHP2USN vector (human P2U receptor [2]; Ca2+-free and Ca2+-containing media)
1 | O=c1ccn([C@@H]2O[C@H](COP(=O)(O)OP(=O)(O)OP(=O)(O)O)[C@@H](O)[C@H]2O)c(=O)[nH]1 [UTP] | initial sharp increase in [Ca^2+ ]i which relaxed over 1-2 min to a prolonged plateau | sharp increase in [Ca^2+ ]i which returned to baseline without an intervening plateau phase | 1400 | slightly more efficacious | raised [Ca^2+ ]i | increased inositol phosphate accumulation | Neither ATP nor UTP elevated [Ca^2+ ]^i | decrease in PIP2 | 
2 | Nc1ncnc2c1ncn2[C@@H]1O[C@H](COP(=O)(O)OP(=O)(O)OP(=O)(O)O)[C@@H](O)[C@H]1O [ATP] | the same result observed with UTP | the same result observed with UTP | 1000 |  | raised [Ca^2+ ]i | increased inositol phosphate accumulation | Neither ATP nor UTP elevated [Ca^2+ ]^i | decrease in PIP2 | the same result observed with UTP
